Test results as given in US20240392302A1, “METHOD FOR DETECTING AND QUANTIFYING RNA” (FLUORESCENCE DIAGNOSIS (SHANGHAI) BIOTECH COMPANY LTD., priority 2021, published 2024).

Tested on: F30-N16-1 RNA aptamer molecules
Assay: Binding of F30-N16-1 RNA aptamer molecules with different fluorescent molecules (fluorescence spectrum, activation multiple)
Assay type: biochemical
Conditions: for Maximum emission peak (nm) / Maximum excitation peak (nm): complex with F30-N16-1; for Activation Multiple: fluorophore with F30-N16-1
Procedure: Nucleic acid aptamer molecules of N16 or N16 mutants were prepared by using the commonly-used experimental method (I), 2.5 μM of nucleic acid aptamer molecules and 0.5 μM of fluorophore molecules were incubated in a detection buffer (40 mM of HEPES, pH 7.4, 125 mM of KCl, 5 mM of MgCl2, 5% DMSO), and the maximum excitation peak and the maximum emission peak of the fluorescence of the nucleic acid aptamer-fluorophore molecular complex were detected with Synergy Neo2 multifunctional enzyme-labeler. Synergy Neo2 multifunctional enzyme-labeler was used again to detect fluorescence intensity of the nucleic acid aptamer-fluorophore molecular complex under its maximum excitation and emission conditions, the control sample ([…] of fluorophore molecules without nucleic acid aptamer) was also measured under the same conditions, and the ratio of fluorescence intensity was calculated. For example, as for fluorescence of the complex formed by 2.5 μM of N16-1 nucleic acid aptamer and 0.5 μM of I-5-14 fluorophore molecules, the maximum excitation peak is 512 nm and the maximum emission peak is 574 nm. It was detected by the Synergy Neo2 multifunctional enzyme-labeler that the fluorescence intensity of the complex at an excitation condition of 512±10 nm and an emission condition of 574 nm±10 nm was 49,088, while the fluorescence intensity of the control (0.5 μM of I-5-14 fluorophore molecules) under the same detection conditions was 399, so the activation multiple of N16-1 nucleic acid aptamer to I-5-14 fluorophore molecules was 123.
F30-N16-1 RNA aptamer molecules were prepared by using the commonly-used experimental method (I), and were used for detecting basic properties, including fluorescence spectrum and fluorescence activation multiple, of the binding of I-5-14 analogues with N16.

Compound | Maximum emission peak (nm) | Maximum excitation peak (nm) | Activation Multiple
CN(C)c1ccc(/C=C2\SC(=S)NC2=S)s1 [I-5-10] | 642 | 626 | 11
CN(C)c1ccc(/C=C2\SC(=S)N(CCC(=O)O)C2=O)cc1 [I-5-20] | 565 | 493 | 22
CCN1C(=O)S/C(=C\c2ccc(N(C)CCO)s2)C1=O [I-5-5] | 518 | 487 | 11
CN(CCO)c1ccc(/C=C2\SC(=S)NC2=S)s1 [I-5-4] | 638 | 625 | 47
CN(CCO)c1ccc(/C=C2\SC(=S)N(N)C2=S)cc1 [I-5-16] | 648 | 615 | 11
CN(C)c1ccc(/C=C2\SC(=O)NC2=S)cc1 [I-5-21] | 605 | 569 | 24
CN(CCO)c1ccc(/C=C2\SC(=O)NC2=O)cc1 [I-5-17] | 506 | 445 | 105
CCN1C(=O)/C(=C/c2ccc3c(c2)SCCN3C)NC1=S [I-5-35] | 585 | 487 | 10
CN1CCOc2cc(/C=C3\SC(=S)NC3=O)ccc21 [I-5-37] | 603 | 497 | 256
CN(CCO)c1ccc(/C=C2\SC(=O)NC2=S)cc1 [I-5-15] | 598 | 567 | 31
CN(C)c1ccc(/C=C2\SC(=O)NC2=O)s1 [I-5-11] | 524 | 493 | 9
CN(C)c1ccc(/C=C2\SC(=O)NC2=O)cc1 [I-5-23] | 515 | 433 | 156
CN1C(=O)/C(=C/c2ccc(N(C)CCO)cc2)NC1=S [I-5-18] | 545 | 473 | 57
CN1CCOc2cc(/C=C3\SC(=O)NC3=S)ccc21 [I-5-36] | 625 | 517 | 9
CN1C(=O)S/C(=C\c2ccc3c(c2)SCCN3C)C1=S [I-5-32] | 625 | 519 | 15
CN(C)c1ccc(/C=C2\SC(=S)N(N)C2=O)s1 [I-5-9] | 578 | 552 | 17
CN(CCOC(=O)CCOCCO)c1ccc(/C=C2\SC(=S)NC2=O)c(Br)c1 [I-5-26] | 567 | 497 | 21
CN1C(=O)/C(=C/c2ccc3c(c2)SCCN3C)SC1=S [I-5-31] | 610 | 503 | 125
CN(C)c1ccc(/C=C2\NC(=S)NC2=O)cc1 [I-5-24] | 543 | 473 | 7
CN(CCO)c1ccc(/C=C2\OC(=O)N(CCC(=O)O)C2=O)c(F)c1 [I-5-25] | 502 | 403 | 6
CN1CCSc2cc(/C=C3\SC(=S)NC3=S)ccc21 [I-5-34] | 659 | 547 | 11
O=C1NC(=S)N/C1=C\c1ccc(N(CCO)CCO)s1 [I-5-6] | 550 | 536 | 23
CN1C(=O)O/C(=C\c2ccc(N(C)C)s2)C1=O [I-5-7] | 504 | 465 | 24
CN1CCCc2cc(/C=C3\SC(=O)NC3=O)ccc21 [I-5-39] | 509 | 429 | 14

Results, then the molecule that gave them:

Maximum emission peak (nm) | Maximum excitation peak (nm) | Activation Multiple | Compound
733 | 682 | 11 | CN(CCO)c1ccc2c(c1)C(C)(C)c1cc(/C=C3\SC(=S)NC3=O)sc1-2 [I-5-79]
748 | 666 | 81 | CN(CCO)c1ccc2cc(/C=C3\SC(=S)NC3=S)sc2c1 [I-5-66]
627 | 513 | 14 | CN(CCO)c1cc2sc(/C=C3\OC(=O)NC3=O)cc2s1 [I-5-55]
713 | 635 | 7 | CN(CCO)c1cc2c(s1)-c1sc(/C=C3\NC(=S)N(N)C3=O)cc1C2(C)C [I-5-81]
605 | 462 | 35 | CN(CCO)c1ccc2cc(/C=C3\SC(=O)NC3=O)sc2c1 [I-5-65]
801 | 748 | 3 | CN(CCO)c1cc2c(s1)-c1sc(/C=C3\SC(=S)NC3=S)cc1C2(C)C [I-5-82]
593 | 518 | 1281 | CN(C)c1cc2sc(/C=C3\SC(=O)NC3=O)cc2s1 [I-5-53]
681 | 582 | 8 | CN(CCO)c1ccc2c(c1)C(C)(C)c1cc(/C=C3\SC(=S)NC3=S)sc1-2 [I-5-78]
665 | 572 | 17 | CC1=CC(C)(C)N(C)c2ccc(/C=C3\SC(=S)NC3=S)cc21 [I-5-43]
737 | 685 | 6 | CN1C(=O)/C(=C/c2cc3c(s2)-c2sc(N(CCO)CCO)cc2C3(C)C)SC1=S [I-5-84]
673 | 521 | 6 | CN1C(=O)/C(=C/c2ccc(-c3ccc(N(C)CCO)s3)cc2)NC1=S [I-5-63]
725 | 686 | 7 | CN(C)c1cc2sc(/C=C3\SC(=S)NC3=S)cc2s1 [I-5-52]
597 | 512 | 7 | O=C1NC(=S)N/C1=C\c1cc2c3c(c1)CCCN3CCC2 [I-5-50]
655 | 581 | 12 | CN1C(=O)/C(=C/c2cc3sc(N(CCO)CCO)cc3s2)SC1=S [I-5-59]
791 | 741 | 7 | CN(CCO)c1ccc2c(c1)C(C)(C)c1cc(/C=C3\SC(=S)NC3=S)ccc1-2 [I-5-75]
627 | 568 | 12 | CN(CCO)c1cc2sc(/C=C3\SC(=O)NC3=S)cc2s1 [I-5-56]
654 | 582 | 1125 | CN(C)c1cc2sc(/C=C3\SC(=S)NC3=O)cc2s1 [I-5-51]
539 | 469 | 1025 | O=C1NC(=O)/C(=C/c2cc3c4c(c2)CCCN4CCC3)S1 [I-5-49]
663 | 536 | 9 | CN1C(=O)/C(=C/c2cc3ccc(N(CCO)CCO)cc3s2)SC1=S [I-5-68]
627 | 527 | 11 | CC1=CC(C)(C)N(C)c2ccc(/C=C3\SC(=O)NC3=S)cc21 [I-5-42]
689 | 529 | 256 | CN(CCO)c1ccc(-c2ccc(/C=C3\SC(=O)NC3=O)s2)s1 [I-5-62]
627 | 471 | 6 | CN1C(=O)S/C(=C\c2nc3ccc(N(C)CCO)cc3s2)C1=O [I-5-71]
626 | 552 | 8 | CN1C(=O)/C(=C/c2cc3sc(N(CCO)CCO)cc3s2)NC1=S [I-5-60]
661 | 531 | 11 | CN(CCO)c1ccc2nc(/C=C3\NC(=S)NC3=O)sc2c1 [I-5-69]
549 | 459 | 21 | CCN1C(=O)S/C(=C\c2ccc3c(c2)C(C)=CC(C)(C)N3C)C1=O [I-5-44]
